# Laboratory results from patent US20210145930A1, “MULTIPLE LAYER ARTICLE WITH INTERACTIVE REINFORCEMENTS LINEAR RIBBON FIBER REINFORCEMENT FOR COMPOSITE FORMS” (NeuroTheranostics, Inc., priority 2018, published 2021).
# No end group written: not given here.
# Legend:
# Assay type in all cases: in vivo, Sprague-Dawley rats
# [1] = system: rats with mild-moderate TBI; experiment: BrdU immunostaining, cell proliferation after controlled cortical impact TBI; settings: 3 mg/kg i.v. at 24 h and 48 h post injury; examined 25 days after TBI; vs saline controls, p<0.05, n=7
# Protocol: BrdU, an analog of thymidine, can be incorporated into the newly synthesized DNA of replicating cells during the S phase of the cell cycle, substituting for thymidine during DNA replication. BrdU immunostaining is commonly used to detect cell proliferation. To determine the effect of SEQ ID NO. 5 (3 mg/kg, i.v.) or saline on cell proliferation, BrdU (100mg/kg) was injected i.p. daily starting at day 1 after mild-moderate TBI and continued for 10 days after TBI to label newly generated cells. Twenty-five days after TBI, the animals were anesthetized and sacrificed. The brains were fixed in 4% paraformaldehyde and cut into seven equally spaced 2-mm coronal blocks using a rat brain matrix. […] 5-treated rats examined at 25 days after TBI, compared to the saline controls. […]
# A large part of the functional recovery that occurs after brain injury is due to neurogenesis, and brain plasticity caused by anatomical and functional reorganization of the CNS. […] 5 on neurogenesis, the brain blocks containing the hippocampus were processed for vibratome sections (100 μm) followed by double fluorescence staining for endogenous cellular proliferation {BrdU positive cells (red) and MAP 2 (green) to identify newborn neurons in the ipsilateral dentate gyrus (DG) of the hippocampus. […] Quantitative measurements of immunostaining were performed by an observer blinded to the individual treatment status of the animals. […]
# [2] = system: rats with mild-moderate TBI; experiment: Endothelial barrier antigen (EBA) staining, vascular density after controlled cortical impact TBI; settings: 3 mg/kg i.v. at 24 h and 48 h post injury; 25 days after TBI; vs saline-treated rats, p<0.05, n=7
# From the text: (§1) A large part of the functional recovery that occurs after brain injury is due to neurogenesis, and brain plasticity caused by anatomical and functional reorganization of the CNS. To determine the effect of SEQ ID NO. 5 on neurogenesis, the brain blocks containing the hippocampus were processed for vibratome sections (100 μm) followed by double fluorescence staining for endogenous cellular proliferation {BrdU positive cells (red) and MAP 2 (green) to identify newborn neurons in the ipsilateral dentate gyrus (DG) of the hippocampus. Five sections with 100-μm intervals from the dorsal dentate gyms were used for immunohistochemical staining with the same antibody. […] Quantitative measurements of immunostaining were performed by an observer blinded to the individual treatment status of the animals. […] The cells with BrdU that clearly localized to the nucleus were counted as BrdU-positive cells. […] The fluorescent images were analyzed with a Bio-Rad MRC 1024 (argon and krypton) laser-scanning confocal imaging system mounted onto a Zeiss microscope (Bio-Rad, Cambridge, Mass.). […]
# Endothelial barrier antigen (EBA)-staining has been used to identify vascular structure in the brain after ischemic brain injury. […] 5-therapy on vessel proliferation and vascular density, quantitative measurement of Endothelial Barrier Antigen (EBA) staining was performed. […]
# [3] = system: rats with mild-moderate TBI; experiment: Morris Water Maze (MWM) after controlled cortical impact TBI; settings: 3 mg/kg i.v. at 24 h and 48 h post injury; Days 23 to 25 post-injury; vs saline-treated group, P<0.05
# Protocol: (§2) A controlled cortical impact (CCI) device was used to induce mild-moderate TBI. Adult male (280-300 g) Sprague-Dawley rats (Harlan: Indianapolis, Ind.) were anesthetized intraperitoneally with xylazine (10 mg/kg body weight) and ketamine (40 mg/kg body weight). Rectal temperature was maintained at 37° C. using a feedback-regulated water-heating pad. The surgical area of the skull was prepared using germicidal povidone-iodine scrub followed by a 70% isopropyl alcohol rinse combinations, being careful to scrub from the center of the surgical site toward the periphery. Rats were placed in a stereotactic frame. […] Velocity was measured with a linear velocity displacement transducer. […] Neurological functional outcome was measured by the modified neurological severity score (mNSS), Morris Water Maze (MWM) and foot-fault test. mNSS is a composite of the motor (muscle status, abnormal movement), sensory (visual, tactile and proprioceptive) and reflex tests. […] If the animal reached the platform within 90 sec, the percentage of time traveled within the NE (correct) quadrant was calculated relative to the total amount of time spent swimming before reaching the platform and employed for statistical analysis. […] Rats were monitored continuously while in the tank. […] When animals inaccurately place a limb, the limb falls through one of the openings in the grid, which is counted as a foot fault. […]
# [4] = system: rats with mild-moderate TBI; experiment: Modified neurological severity score (mNSS) after controlled cortical impact TBI; settings: 3 mg/kg i.v. at 24 h and 48 h post injury; Days 14-25 after TBI; vs saline-treated group, P<0.05
# Protocol: as §2
# [5] = system: rats with mild-moderate TBI; experiment: BrdU/MAP-2 double fluorescence staining, neurogenesis after controlled cortical impact TBI; settings: 3 mg/kg i.v. at 24 h and 48 h post injury; 25 days post injury; vs saline controls, p<0.05, n=7
# From the text: as §1, with “antibody. Sections were blocked in a Tris-buffered saline solution containing 5% normal goat serum, 1% BSA and 0.05% Tween-20.” for “antibody.”
# A controlled cortical impact (CCI) device was used to induce mild-moderate TBI. […] Velocity was measured with a linear velocity displacement transducer. […]
# [6] = system: rats with mild-moderate TBI; experiment: Modified foot-fault test after controlled cortical impact TBI; settings: 3 mg/kg i.v. at 24 h and 48 h post injury; up to 25 days after TBI; vs control group
# Protocol: as §2
sequence,measurement,setting,value
DPMSSTYIEELGKREVTIPPKYVALLPAVLLALLAP [SEQ ID NO. 5],number of BrdU-positive cells in the ipsilateral cortex and hippocampus,[1],significantly increased
same,density (vessels/mm2) of EBA positive vessels in the injured cortex area,[2],significantly increased
same,"spatial learning and memory retention (percentage of time spent in the correct quadrant, MWM)",[3],significant improvement
same,sensorimotor scores (mNSS),[4],significantly improved
same,"number of newborn neurons (BrdU/MAP-2 positive) in the ipsilateral DG, per mm^2",[5],significantly increased
same,neurological function assessed by the footfault test,[6],no significant improvement
